What was measured:
[1] = system: primary human HTS fibroblasts; assay: Collagen I deposition in hypertrophic scar fibroblasts (Western blot, immunofluorescence); format: cell-based; details: HTS fibroblasts, 1,000 nM Ch55, presence and absence of TGF-β1, 48 hours
Description: Since overproduction of collagen is characteristic of fibroblasts in tissue fibrosis, including hypertrophic scar and keloid, we wished to determine whether Ch55 also affects deposition of collagen I by these fibroblasts.
Cells cultured on glass coverslips were fixed in 4% paraformaldehyde for 30 minutes at room temperature. Cells were blocked in 10% normal goat serum and incubated overnight at 4° C. in solutions of the following primary antibodies: Rabbit monoclonal α-human α-SMA (1:500 dilution, catalog #192455, Cell Signaling Technology, Danvers M A) or mouse α-human COL1A1 (1:1000 dilution, catalog #M-38c, DSHB, Iowa City, IA). The following day, cells were incubated in 1:200 diluted solutions of goat-α-rabbit IgG or donkey-α-mouse IgG Alexafluor 488-conjugated secondary antibodies (A11034 or A21202, Invitrogen) containing Alexafluor 568-conjugated phalloidin (A12380, Invitrogen) for 2 hours in the dark at room temperature, before a 20 minute counterstain in 500 ng/mL DAPI. […]
Harvested scar tissues were incubated in 0.5M ammonium thiocyanate for 20 minutes, followed by mechanical separation of dermis and epidermis using a dissecting microscope. […] Protein concentrations of cell culture and tissue samples were determined using a DC protein assay (BioRad). […]

[2] = system: excisional wound-induced hypertrophic scarring in the ears of New Zealand White rabbits; assay: Rabbit ear hypertrophic scar model; format: in vivo; details: POD28; for amount of type I collagen in the dermis (Western blot, densitometry) / erythema in developed scars: intradermal; for erythema in developed scars: three injections
Description: Harvested scars were processed and analyzed to determine scar elevation index (SEI), a common quantitative histological measurement used to assess scar hypertrophy (FIG. 17). […] MATERIALS AND METHODS Materials […] dihydrochloride hydrate, homoharringtonine, Ch55 and panobinostat were acquired from Fisher Scientific (Waltham, MA). AZD-7762 was acquired from Selleck Chemicals (Houston, TX). For in vitro work, emetine dihydrochloride hydrate was dissolved in sterile H2O at 50 mM. Homoharringtonine was dissolved in DMSO at 10 mg/mL. Panobinostat was dissolved in DMSO at 425 μM. […] Recombinant human TGF-β1 (Sigma-Aldrich) was dissolved in sterile H2O at 50 µg/mL. All-trans-retinoic acid (Thermo Scientific) was dissolved in DMSO at 10 mM. […] All animal experiments were approved prior to initiation by the Northwestern University Institutional Animal Care and Use Committee (IACUC). Rabbit experiments were performed in female New Zealand White rabbits (Envigo, Indianapolis, IN) of mass 2.5-3 kg. The hypertrophic scar model was performed as described in previous publications (Dolivo et al., Jia et al., 2017, Xie et al., 2020). Briefly, on each ear, six full-thickness circular excisional wounds of 7-mm diameter were created down to the perichondrium using biopsy punches, and excised tissue was removed gently using forceps. Wounds were covered with Tegaderm (3M Healthcare, St. Paul, MN) and wounds were allowed to re-epithelialize until post-operative day (POD) 12. […] Injections were performed on POD16, POD19, and POD22. On POD28, measurements of erythema were performed using a DermaLab Combo (CyberDerm, Broomall, PA) immediately prior to euthanasia and tissue harvest. Harvested scar tissues were incubated in 0.5M ammonium thiocyanate for 20 minutes, followed by mechanical separation of dermis and epidermis using a dissecting microscope. Isolated dermal tissues were minced with a razor blade, submerged in RIPA buffer, and homogenized in the presence of 2 mm zirconia beads using a MagNA Lyser (Roche, Basel, Switzerland). Alternatively, cell culture samples were detached from the culture surface by trypsinization, collected by centrifugation, and lysed in RIPA buffer. Protein concentrations of cell culture and tissue samples were determined using a DC protein assay (BioRad). Five micrograms of total protein were loaded onto polyacrylamide gels and subjected to SDS-PAGE before transfer to nitrocellulose membranes, blocking with 5% dry milk in TBS-T, and probing with target-specific primary antibodies overnight. Species-specific secondary antibody solutions were added to membranes, and chemiluminescent signal was developed with Amersham ECL Western blotting detection reagent using X-ray film. Harvested tissues were fixed in 10% neutral-buffered formalin for 24 hours before serial dehydration and embedding in paraffin. […] Slides were deparaffinized and rehydrated in xylene and serial ethanol. Tissue samples were stained with hematoxylin and eosin (H&E), Modified Masson's Trichrome stain (Scytek, Logan, UT), or picrosirius red/fast green according to standard protocols.

[3] = system: primary human foreskin fibroblasts; details: second donor, 1,000 nM, 24 hours
Description: Cell culture Primary human neonatal foreskin fibroblasts were obtained from the Skin Biology and Diseases Resource-based Center at Northwestern University. Primary rabbit dermal fibroblasts were isolated from female New Zealand White rabbits via harvesting full-thickness skin biopsies from rabbit ears, digesting overnight in a solution of 5 mg/mL dispase, and subsequently mechanically separating dermis from epidermis. After discarding epidermal tissue, dermal tissue was minced with a razor blade, and fibroblasts were liberated through collagenase-mediated digestion for growth in culture. […] Human fibroblasts and rabbit fibroblasts were cultured on tissue culture plastic (or, for immunofluorescence experiments, on glass coverslips) in DMEM+10% FBS and were serum starved in DMEM+0.1% FBS for 24 hours prior to drug treatments. When indicated, recombinant human TGF-β 1 was included in culture medium at a concentration of 10 ng/mL. Cultures were maintained in a humidified cell culture incubator at 37° C., 5% CO2, and ambient O2. For treatment with drugs and associated vehicle controls, the fraction of DMSO in the media was always maintained at <0.1% (v/v) in order to avoid confounding effects. […]

CC(C)(C)c1cc(C(=O)/C=C/c2ccc(C(=O)O)cc2)cc(C(C)(C)C)c1 [Ch55]
collagen I deposition (Western blot, immunofluorescence) [1]: dramatic reduction | collagen density of the scars (Masson's Trichrome, picrosirius red/fast green) ([2]; Ch55-treated wounds): possible decrease | amount of type I collagen in the dermis (Western blot, densitometry) ([2]; high dose (10 μg)): sufficient to reduce | erythema in developed scars ([2]; high dose (10 μg)): significantly decreased | amount of type I collagen in the dermis (Western blot, densitometry) ([2]; low dose (2 μg)): sufficient to reduce | erythema in developed scars ([2]; low dose (2 μg)): not statistically significant | effects on morphology and gene expression in fibroblasts of another tissue donor [3]: comparable effects
